Patent US20050148630A1, “Methods of preventing and treating non-opioid induced gastrointestinal dysfunction” (priority 2003, published 2005)

Experiments:
healthy volunteers = experiment: Ascending dose level safety study (Phase I) of alvimopan, TID for 4 days; assay type: in vivo
Description: This was an ascending dose level safety study (Phase I) intended to determine the frequency and severity of adverse events (AEs) and to estimate the maximum tolerated dose of alvimopan. Subjects were screened to ensure their status as healthy volunteers. They were only enrolled if they had no clinically significant abnormalities on history, physical, or laboratory examinations. Post study physical examination and laboratory tests, including serum chemistries and complete blood count, were performed.
Alvimopan or placebo was administered TID for 4 days.
One subject in each dose group was randomly assigned to receive placebo that was identical in appearance to the active study medication.
Forty-four subjects were randomized for treatment. One subject at each dose level received placebo (N=5); the rest received alvimopan. […] The incidence of gastrointestinal AEs increased with increasing dose of alvimopan. One or more incidence of mild or moderate “abdominal pain” was reported by 83-100% of subjects receiving 18 or 54 mg daily doses (6 or 18 mg TID), but was infrequent at lower doses (range 11-18%). One or more incidence of diarrhea was reported by 83% of subjects receiving 54 mg daily doses (18 mg TID), but was infrequent at lower doses (range 9-22%). One or more incidence of flatulence was reported by 50-78% of subjects receiving 18 or 54 mg daily doses (6 or 18 mg TID), but was less frequent at lower doses (range 18-33%). One subject receiving the highest dose, 54 mg/day (18 mg TID), withdrew during the second day of dosing due to adverse events of abdominal pain, nausea, and diarrhea.

[1] = test system: subjects with functional constipation; experiment: Oral-cecal transit time, lactulose hydrogen breath test, cross-over study; assay type: in vivo, human; conditions: 3 mg BID, Day 7, lactulose hydrogen breath test
Description: (§1) Subjects underwent measurement of their whole bowel transit (radio-opaque markers) and oral-cecal transit (hydrogen-breath test) prior to receiving the first treatment (baseline) and at the end of each treatment period. During the screening and treatment periods, subjects recorded the time of each bowel movement (defecatory frequency), an assessment of each stool's consistency (using the Bristol Stool Form Scale), and an overall rating of their satisfaction with their bowel movements over each period (1-5 scale: 1=much worse than usual, 2=worse than usual, 3=no change, 4=better than usual, 5=much better than usual). Stool output per 7-day period was calculated from the weight of all stools collected during each treatment period (stools collected over the 7-day assessment period).
The transit time for mouth to cecum, a reflection of small bowel transit, was measured utilizing the hydrogen breath test. […] The time between ingestion of lactulose (10 g) and the sustained increase in hydrogen in the breath (hydrogen concentration in end-expiratory breath samples as measured by gas chromatography) represents the oral-cecal transit time (OCTT). […] Breath samples were measured every 15 minutes following ingestion of the lactulose. Transit time was determined by the first time of three consecutive samples in which there was at least a doubling of the baseline breath hydrogen concentration. […]

[2] = test system: subjects with functional constipation; experiment: Safety and tolerability in the cross-over study; assay type: in vivo, human; conditions: 3 mg BID for 7 days
Description: Subjects were given a physical examination, vital signs, and blood and urine samples obtained for safety laboratory studies at the conclusion of their last treatment period. Any abnormal findings were followed until resolution.
(§2) This single-center, randomized, placebo-controlled, crossover trial was designed to determine the effect of alvimopan on bowel transit of patients with chronic constipation. Whole bowel transit (WBT), bowel movement frequency as total bowel movement (BM), and spontaneous complete BM (SCBM), BM symptoms of straining, discomfort, and satisfaction were compared between placebo and alvimopan (3 mg BID) for 7 days. Safety and tolerability were assessed.

Solubility in water = assay type: physicochemical; conditions: except at low or high pH conditions
[3] = test system: subjects with functional constipation; experiment: Whole bowel transit (radio-opaque markers) and mean colonic transit time, placebo-controlled cross-over study; assay type: in vivo, human; conditions: 3 mg BID for 7 days
Procedure: A single-center, placebo-controlled, randomized, double-blind, balanced two period cross-over study of the effect of alvimopan on GI transit in subjects with functional constipation was carried out.
Subjects (n=24) meeting the initial screening criteria for functional constipation by history, and who had 3 or fewer stools during a 7-day screening period, were randomly assigned to receive initially either orally-administered alvimopan, 3 mg twice daily for 7 days or matching placebo. Following a two- to four-week washout period, subjects received the opposite treatment for a 7-day period.
as §1
Whole bowel transit was determined by using a modification of the radio-opaque marker method developed by Metcalf et al., Gastroenterology, 1987, 92: 40-47. This method is reproducible and correlates well with scintigraphic methods of measuring colonic transit (Degen, et al., Gut, 1996, 39: 299-305). Subjects ingested, at 8:00 AM on the mornings of Days 3, 4, 5, one capsule containing 24 radio-opaque markers (Sitzmark; Konsyl Pharmaceuticals, Fort Worth, Tex.). Stools from Days 3 to 7 were collected and examined by x-ray for the presence of the radio-opaque markers. […] Weights were assigned to the six locations in the colon and a weighted average of the number of radio-opaque markers in the colon was calculated. […]
This single-center, randomized, placebo-controlled, crossover trial was designed to determine the effect of alvimopan on bowel transit of patients with chronic constipation. […] Safety and tolerability were assessed.
(§3) The following were performed for each test arm: WBT estimated by a weighted sum of retained radio-opaque markers (based on number and location in the colon on single x-ray 48 hours post marker ingestion) and mean colonic transit time (MCTT) calculated by the method of Metcalf et al., Gastroenterology, 1987, 92: 40-47; and bowel movement frequency (BMF) and symptoms by patient self-report diary card.

[4] = test system: subjects with functional constipation; experiment: Bowel movement frequency and symptoms by patient self-report diary card, cross-over study; assay type: in vivo, human
Description: as §1
Each treatment period comprised seven days of dosing (oral alvimopan 3 mg or matching placebo, given at 8:00 AM and 8:00 PM). For each defecation, subjects recorded the time, date, and stool form (Bristol Stool Form Criteria) (Heaton, et al., Gut, 1991, 73-79). Subjects rated their overall satisfaction with their bowel movements for the treatment period on Day 7.
For Day 1 of each treatment period, the following procedures were conducted in the clinic prior to the morning dosing: a urine drug screen, and a urine/serum pregnancy test (when applicable), semi-supine (i.e., 45-degree angle, pillow, etc.) blood pressure and pulse rate measurements and recording of baseline signs and symptoms. All subjects received their first dose of alvimopan 3 mg or placebo after a light breakfast in the clinic at approximately 8 AM in the morning and according to the randomization schedule. Each dose of alvimopan or placebo was taken with 240 ml of still room-temperature water at each dosing occasion. Subjects were then dispensed the study drug to be taken until the evening dose on Day 5, as well as the Stizmark capsules containing the radio-opaque markers and discharged. Subjects were admitted to the study unit on the evening of Day 5 until completion of the transit studies on Day 7. They were asked to complete a medication diary with the times of morning and evening dosing as an outpatient, as well as any symptoms they experienced at home. Subjects collected all stools from Days 1 to 7. Subjects recorded the time, date, and stool form (Bristol Stool Form Criteria) (Heaton, et al., Gut, 1991, 73-79) for each defecation. Subjects rated their overall satisfaction with their bowel movements for the treatment period on Day 7.
as §2, §3

[5] = 18 or 54 mg daily doses (6 or 18 mg TID)

SMILES: C[C@H]1CN(C[C@H](Cc2ccccc2)C(=O)NCC(=O)O)CC[C@@]1(C)c1cccc(O)c1 [alvimopan, [[(2S)-2-[[(3R,4R)-4-(3-hydroxyphenyl)-3,4-dimethylpiperidin-1-yl]methyl]-3-phenylpropanoyl]amino]acetic acid dihydrate]
- subjects reporting one or more incidence of diarrhea (healthy volunteers; 54 mg daily doses (18 mg TID)): 83%
- subjects withdrawn due to adverse events of abdominal pain, nausea, and diarrhea (healthy volunteers; 54 mg/day (18 mg TID), second day of dosing): One
- subjects reporting one or more incidence of flatulence (healthy volunteers; [5]): 50-78%
- subjects reporting one or more incidence of mild or moderate abdominal pain (healthy volunteers; [5]): 83-100%
- tolerability (healthy volunteers; doses up to 54 mg daily (18 mg TID) for 4 days): generally well tolerated
- subjects reporting one or more incidence of diarrhea (healthy volunteers; lower doses): 9-22%
- subjects reporting one or more incidence of flatulence (healthy volunteers; lower doses): 18-33%
- subjects reporting one or more incidence of mild or moderate abdominal pain (healthy volunteers; lower doses): 11-18%
- OCTT v. placebo [1]: not changed
- incidence of GI-related adverse effects versus placebo arm [2]: slightly higher
- severity of adverse events ([2]; both arms): generally mild
- premature discontinuation due to an adverse effect ([2]; either treatment arm): No subjects prematurely discontinued
- solubility in water (Solubility in water): low solubility
- reduction in MCTT versus placebo [3]: 19%
- reduction in weighted sum of retained radio-opaque markers (faster whole bowel transit) versus placebo ([3]; p<0.049): 32%
- mean colonic transit time (MCTT) ([3]; placebo 69±5): 56 ± 6 h
- WBT, weighted sum of retained radio-opaque markers ([3]; placebo 160±17): 109±17 WSM
- BM consistency compared to placebo ([4]; 3 mg BID for 7 days): improved
- BM discomfort compared to placebo ([4]; 3 mg BID for 7 days): improved
- BM satisfaction compared to placebo ([4]; 3 mg BID for 7 days): improved
- BM straining compared to placebo ([4]; 3 mg BID for 7 days): improved
- mean increase above baseline for SCBM ([4]; 3 mg BID over 7 days, placebo 0.3): 0.6
- mean increase above baseline for BMF ([4]; 3 mg BID over 7 days, placebo 0.5): 1.0
- mean bowel movement Bristol Stool Form Scale score ([4]; FIG. 2, 3 mg BID for 7 days): increased
- % of bowel movements with no/mild straining or discomfort ([4]; FIG. 3, 3 mg BID for 7 days): increased
